Results taken from ChEMBL document CHEMBL1914375, “New PDE4 inhibitors based on pharmacophoric similarity between papaverine and tofisopam” (Bioorg Med Chem Lett, 2011).

Columns and labels:
[1] = target: cGMP-specific 3',5'-cyclic phosphodiesterase (Bos taurus) (UniProt Q28156); experiment: Inhibition of bovine aortic PDE5 using cGMP as substrate at 10 uM in presence of EGTA
[2] = Inhibition of bovine aortic PDE4 using cAMP as substrate in presence of cGMP; parameters: species or system Bos taurus
Endothelial cell = experiment: Inhibition of bovine aortic endothelial cells PDE2 using cAMP as substrate at 10 uM in presence of cGMP; assay type: cell-based; settings: Bos taurus
Bos taurus [3] = species: Bos taurus; experiment: Inhibition of bovine aortic PDE3 using cAMP as substrate at 10 uM in presence of rolipram
Bos taurus [4] = species: Bos taurus; experiment: Inhibition of bovine aortic PDE1 using calmodulin activated cGMP as substrate at 10 uM
[5] = Competitive inhibition of bovine aortic PDE4 using cAMP as substrate by Lineweaver-Burk plot analysis; parameters: species or system Bos taurus
Bos taurus [6] = species: Bos taurus; experiment: Ratio of tofisopam IC50 to compound IC50 for bovine aortic PDE4 using cAMP as substrate in presence of cGMP
[7] = Inhibition of bovine aortic PDE3 using cAMP as substrate in presence of rolipram; parameters: species or system Bos taurus
[8] = Inhibition of bovine aortic endothelial cells PDE2 using cAMP as substrate in presence of cGMP; assay type: cell-based, Bos taurus; settings: endothelial cell
Bos taurus [9] = species: Bos taurus
Description: Activity of bovine aortic PDE4

[10] = target: cGMP-specific 3',5'-cyclic phosphodiesterase (Bos taurus, UniProt Q28156); experiment: Inhibition of bovine aortic PDE5 using cGMP as substrate in presence of EGTA

In the case of `CCOc1cc2c(cc1OCC)C(CC)C(C)=NN=C2c1ccc(Cl)cc1` (stereo not drawn), the inhibition [1] is reported as 39%, the IC50 [2] is reported as 200 nM and the inhibition (Endothelial cell) is reported as 38%. For the same compound, the inhibition (Bos taurus [3]) was 4%.
`CCOc1ccc(C(=O)c2ccc(N(C)Cc3ccccc3)cc2)cc1OCC` showed an IC50 [2] of 2200 nM.
`COc1cc2c(cc1OC)N(C)C(=O)CN=C2c1ccccc1` gave an IC50 [2] of 18000 nM.
Work on `CCOc1ccc(Cc2nccc3cc(OCC)c(OCC)cc23)cc1OCC` [ETHAVERINE] yielded an IC50 [2] of 400 nM.
`COc1ccc(Cc2nccc3cc(OC)c(OC)cc23)cc1OC` [PAPAVERINE] gave an IC50 [2] of 1100 nM.
`CCOc1cc2c(cc1OCC)N(C)C(=O)CN=C2c1ccccc1` gave an IC50 [2] of 860 nM.
`COc1cc2c(cc1OC)C(c1ccccc1)=NN(C)C(=O)C2` gave an IC50 [2] of 5100 nM.
Compound `CCOc1cc2c(cc1OCC)C(c1cccc(Cl)c1)=NNC(=O)C2` has an IC50 [2] of 1400 nM.
`COc1cc2c(cc1OC)C(c1ccc(Cl)c(Cl)c1)=NNC(=O)C2` gave an IC50 [2] of 300 nM.
`CCOc1ccc(C2=NNC(=O)Cc3ccccc32)cc1OCC` gave an inhibition (Bos taurus [4]) of 3%, an inhibition [1] of 17% and an IC50 [2] of 190 nM. It also gave an inhibition (Endothelial cell) of 27% and an inhibition (Bos taurus [3]) of 12%.
`CCOc1cc2c(cc1OCC)C(c1ccccc1)=NNC(=O)C2` showed an inhibition (Bos taurus [4]) of 37%, an inhibition [1] of 30% and an IC50 [2] of 800 nM. The inhibition (Endothelial cell) was 5% and the inhibition (Bos taurus [3]) was 30%.
In the case of `COc1cc2c(cc1OC)N(C)C(=O)CN=C2C#Cc1ccccc1`, the IC50 [2] is reported as 1600 nM.
`COc1cc2c(cc1OC)C(c1cc3ccccc3s1)=NN(C)C(=O)C2` showed an IC50 [2] of 300 nM.
Compound `CCOc1ccc(C(=O)c2ccc3ccccc3c2)cc1OCC` has an IC50 [2] of 5000 nM.
For `CCOc1ccc(C(=O)c2ccccc2Cl)cc1OCC`, the inhibition (Bos taurus [4]) was 21%, the inhibition [1] was 4% and the Ki [5] was 420 nM. For the same compound, the IC50 [2] was 1400 nM, the inhibition (Endothelial cell) was 46% and the inhibition (Bos taurus [3]) was 24%.
Compound `CCOc1ccc(C(=O)c2cccc3ccccc23)cc1OCC` has an IC50 [2] of 4300 nM.
`COc1cc2c(cc1OC)C(c1ccccc1)=NCC(=O)N2` gave an IC50 [2] of over 20000 nM.
`COc1cc2c(cc1OC)N(C)C(=O)CN=C2c1ccc(Cl)cc1` showed an IC50 [2] of over 20000 nM.
`COc1ccc(C(=O)N2CCCCC2)cc1OC` gave an IC50 [2] of 9600 nM.
With `CCOc1ccc(C2=NN(C)C(=O)Cc3ccccc32)cc1OCC` the Ki [5] was 66 nM and the IC50 [2] was 140 nM.
For `CCOc1cc2c(cc1OCC)C(c1cc3ccccc3s1)=NN(C)C(=O)C2`, the Ratio IC50 (Bos taurus [6]) was 7 and the IC50 [2] was 87 nM.
For `CCOc1cc2c(cc1OCC)C(CC)C(C)=NN=C2c1cccc(Cl)c1` (stereo not drawn), the IC50 [2] was 390 nM and the inhibition (Endothelial cell) was 44%.
Compound `COc1cc2c(cc1OC)C(c1ccccc1)=NNC(=O)C2` has an IC50 [2] of 7700 nM.
`COc1cc2c(cc1OC)C(c1ccc3ccccc3c1)=NNC(=O)C2` gave an IC50 [2] of 1500 nM.
In the case of `CCOc1ccc(C(=O)N2CCCCC2)cc1OCC`, the IC50 [2] is reported as 3600 nM.
`CCOc1cc2c(cc1OCC)C(c1ccccc1)=NCC(=O)N2` gave an IC50 [2] of 950 nM.
With `CCOc1ccc(C(=O)c2ccc(Cl)c(Cl)c2)cc1OCC` the IC50 [2] was 7900 nM.
Work on `CCOc1ccc(C(=O)N2CCN(Cc3ccccc3)CC2)cc1OCC` yielded an IC50 [2] of 2300 nM.
`CCC1C(C)=NN=C(c2ccc(OC)c(OC)c2)c2cc(OC)c(OC)cc21` (stereo not drawn) [TOFISOPAM] showed an IC50 [7] of 5900 nM, an IC50 [8] of 900 nM and an IC50 [2] of 680 nM.
For `CCOc1ccc(C(=O)c2ccccc2)cc1OCC`, the IC50 [2] was 2900 nM.
With `Nc1ncnc2c1ncn2[C@@H]1O[C@@H]2COP(=O)(O)O[C@H]2[C@H]1O` the Km (Bos taurus [9]) was 0.71 µM.
Work on `COc1cc2c(cc1OC)N(C)C(=O)CN=C2/C=C/c1ccccc1` yielded an IC50 [2] of 8400 nM.
For `COc1cc2c(cc1OC)C(c1cccc(Cl)c1)=NNC(=O)C2`, the IC50 [2] was 7700 nM.
For `COc1cc2c(cc1OC)N(C)C(=O)CN=C2CCc1ccccc1`, the IC50 [2] was over 20000 nM.
With `CCOc1cc2c(cc1OCC)C(c1ccc(Cl)cc1)=NNC(=O)C2` the IC50 [2] was 800 nM.
`COc1cc2c(cc1OC)C(c1cccc(Cl)c1)=NN=C(C)C2` [GIRISOPAM] showed an IC50 [8] of 4000 nM, an IC50 [2] of 3200 nM and an IC50 [10] of 12500 nM. The inhibition (Bos taurus [3]) was 22%.
In the case of `COc1cc2c(cc1OC)C(c1ccc(Cl)cc1)=NNC(=O)C2`, the IC50 [2] is reported as 1500 nM.
For `CCOc1cc2c(cc1OCC)C(c1cc3ccccc3s1)=NNC(=O)C2`, the IC50 [2] was 260 nM.
Compound `COc1cc2c(cc1OC)C(c1cc3ccccc3s1)=NNC(=O)C2` has an IC50 [2] of 1200 nM.
Work on `COc1cc2c(cc1OC)N(C)C(=O)CN=C2c1cccc(Cl)c1` yielded an IC50 [2] of over 20000 nM.
`COc1cc2c(cc1OC)N(C)C(=O)CN=C2c1cc2ccccc2s1` gave an IC50 [2] of 2300 nM.
`COc1cc2c(cc1OC)N(C)C(=O)CN=C2N1CCCCC1` showed an IC50 [2] of over 20000 nM.
Work on `CCOc1ccc(C(=O)c2ccc(Cl)cc2)cc1OCC` yielded an IC50 [2] of over 20000 nM.
In the case of `CCOc1ccc(C(=O)N2CCN(c3ccccc3)CC2)cc1OCC`, the IC50 [2] is reported as 17000 nM.
